From patent US20210401710A1, “AZOXYSTROBIN EFFICACY IN PERSONAL CARE FORMS” (The Procter & Gamble Company, priority 2020, published 2021)

Test system: Malassezia furfur (CBS 7982)
Test: In Vitro Antifungal Minimum Inhibitory Concentration (MIC) Testing
Type: cell-based
Conditions: azoxystrobin itself against Malassezia, value used in the model
Protocol: Malassezia furfur (CBS 7982) is maintained continuously as a culture at 31° C. in a 250-ml vent-capped polycarbonate Erlenmeyer flask by combining approximately 50 ml of mDixon growth medium and 2.5 ml of previously grown Malassezia culture. For each assay, Malassezia cells from 24-hour-old culture (approximately 7.5×10^8 cells/ml) are diluted 500-fold into mDixon growth medium. Micropipettes are used to transfer 295 ul of diluted cells to each well of a Beckman 267007 polypropylene round-bottom deep-well plate. Product forms are prepared for testing as concentrated stocks in water. Micropipettes are used to transfer 5 ul of appropriately diluted product form to the diluted Malassezia cells in the round-bottom deep-well plate. A semipermeable sealing film is applied to the plate which is then covered with water-soaked cotton batting. The deep-well plates are shaken at 31° C. on a Heidolph Titramax 1000 shaker at 1350 rpm for approximately 20 hours. The samples are mixed by micropipetting before transferring 200 ul of sample culture from each well to a Corning 3596 polystyrene plate. The plates are read immediately for absorbance at 600 nm using a Molecular Devices SpectraMax M5 plate reader. MIC values are presented as ppm of active.

Compound: CO/C=C(/C(=O)OC)c1ccccc1Oc1cc(Oc2ccccc2C#N)ncn1 [Azoxystrobin]
- minimal inhibitory concentration (MIC): 0.2-0.9 ppm
